From patent publication US5759768A, “Assays for factors affecting circularization of DNA, assays for factors affecting DNA integration, factors, and uses thereof” (priority 1995, dated 1998)

Experiments:
[1] = test system: purified linear viral DNA; assay: Circularization of purified linear viral DNA in cytoplasmic extracts of uninfected SupT1 cells; format: biochemical, HIV-1; settings: 1 mM, 37° C., 45 min
Description: Further evidence of a role for host proteins in the formation of the 1-LTR and simple 2-LTR circular forms of viral DNA was obtained by testing the ability of uninfected cell extracts to mediate the circularization of purfied viral DNA. Linear viral DNA was prepared from cytoplasmic extracts of uninfected cells by SDS-proteinase K treatment and phenol extraction. The purfied DNA was added to cytoplasmic extracts prepared form uninfected SupT1 cells, in the presence or absence of added ATP.
Linear viral DNA was purified from cytoplasmic extracts of cells 4 hours post-infection as described above. In FIG. 22, a purified linear viral DNA was added to cytoplasmic extracts from uninfected SupT1 cells and incubated at 37° C. for 45 minutes. The uninfected SupT1 cells used for the preparation of extracts were either untreated (lanes 3-11) or cultured in the presence of 10 ng/ml phorbol 12-myristate 13-acetate for six hours prior to extraction (lane 2). […] Lanes 2-11: reaction products following incubation of purified linear viral DNA in uninfected extracts containing 1 mM ATP (lanes 2 and 3), nothing added (lane 4), 1 mM dATP (lane 5), 1 mM UTP (lane 6), 1 mM CTP (lane 7), 1 mM GTP (lane 8), 1 mM ATPγS (lane 9), or 1 mM ADP (lane 10). Lane 11: uninfected SupT1 cell extract was treated with proteinase K for 10 minutes at 37° C., then linear viral DNA was added and incubation continued for 45 minutes. In FIG. 23, lanes 1, 2, 4 and 5: purified linear viral DNA was incubated with T4 DNA ligase (lane 1), T4 polynucleotide kinase and T4 DNA ligase (lane 2), Klenow fragment of E. coli DNA polymerase I and T4 DNA ligase […], or Klenow fragment, T4 polynucleotide kinase, and T4 DNA ligase (lane 4). Lanes 3 and 6: in vitro circularization reaction products generated in cell extracts, included as size standards. Lane 3: cytoplasmic extracts from infected cells were incubated with […] for 45 minutes; lane 6: purified linear viral DNA was incubated with cytoplasmic extract from uninfected SupT1 cells in the presence of 1 mM ATP for 45 minutes. The possibility that a host DNA ligase was responsible for the formation of the simple 2-LTR circles was examined by testing the ability of phage T4 ligase to catalyze the circularization of linear viral DNA. […] Restriction endonuclease analysis of the reaction products formed in the presence of both Klenow fragment and T4 DNA ligase confirmed the formation of new 2-LTR junctions (not shown). […] This observation is consistent with previous reports that linear viral DNA prepared from cells infected with the murine leukemia virus [Fujiwara and Mizuuchi, Cell, 54:497-504 (1988) and HIV-1 [Pauza, Virology, 179:886-887 (1990)] consists of a mixture of molecules that are either blunt-ended or recessed by two nucleotides at each 3'-terminus. The removal of the two terminal nucleotides is mediated by the viral integrase as a necessary step in the process of integration [Roth et al., Cell 58: 47-54 (1989)]. […] This would explain the requirement of DNA polymerase for the subsequent joining of the ends of viral DNA by DNA ligase.

preintegration complexes = assay: Circularization mediated by partially purified preintegration complexes; format: biochemical, HIV-1; settings: for circular DNA formed by preintegration complexes: 37° C., 45 min
Description: Viral preintegration complexes were partially purified from cytoplasmic extracts by Sephacryl S400 gel filtration chromatography. Cytoplasmic extracts (0.8 ml) were loaded onto a 22-ml Sephacryl S400 (Pharmacia) column, 28 cm in height, equilibrated in buffer K containing 0.5% Triton X-100 at 4° C. Fractions (0.5 ml) were collected at a flow rate of approximately 0.2 ml/min.
The linear viral DNA present in cytoplasmic extracts is a part of the nucleoprotein preintegration complex that can be separated from the bulk of cellular proteins by gel filtration chromatography [Farnet and Haseltine, J. Virol., 65: 1910-1915 (1991)]. Preintegration complexes were partially purified by Sephacryl S400 column chromatography and tested for the ability to mediate the circularization of viral DNA. Cytoplasmic extracts (1 ml, vol) were fractionated by Sephacryl S-400 gel filtration chromatography as previously described. The void volume fractions of the column, containing the peak of viral DNA, were pooled (total volume, 1.5 ml) and incubated as follows with the results shown in FIG. 20. Lane 1: column fractions were incubated at 37° C. for 45 minutes; lane 2: linear .phi.X174 DNA was added to column fractions to a final concentrations of 650 ng/ml and incubated at 37° C. for 45 minutes; lane 3: ATPγS was added to column fractions and incubated at 37° C. for 45 minutes; lane 4: same as lane 3, except that an equal volume of cytoplasmic extract from uninfected SupT1 cells was added prior to incubation; lane 5: ATP was added to column fractions to a final concentration of 1 mM and incubated at 37° C. for 45 minutes; lane 6: same as lane 5, except that an equal volume of cytoplasmic extract from uninfected SupT1 cells was added prior to incubation. […] Lane 1: products of the reaction shown in FIG. 20, lane 4, digested with SalI and PstI; lane 2: products of the reaction shown in FIG. 20, lane 5, digested with SalI and PstI; lane 3: products of the reaction shown in FIG. 20, lane 6, digested with SalI and PstI. […] The formation of all types of circular produts was dependent upon the addition of ATP, as viral DNA in column fractions remained linear during incubation at 37° C. in the absence of added ATP (FIG. 20, lane 1), regardless of the addition of uninfected SupT1 cell extracts.

Nc1ncnc2c1ncn2[C@@H]1O[C@H](COP(=O)(O)OP(=O)(O)OP(=O)(O)O)[C@@H](O)[C@H]1O [ATP, adenosine triphosphate]
1-LTR circles from purified linear viral DNA [1]: The most abundant of the new DNA forms comigrated with the 1-LTR circular DNA molecules
2-LTR circles from purified linear viral DNA [1]: a small amount of product migrating as 2-LTR circles could also be detected
circularization of purified linear viral DNA [1]: New, slowly migrating DNA species were detected
1-LTR circle formation by preintegration complexes (preintegration complexes; 1 mM ATP, plus cytoplasmic extract from uninfected SupT1 cells): restored the ability to form 1-LTR circles
2-LTR junction fragment from preintegration complexes (preintegration complexes; 1 mM ATP, plus uninfected SupT1 cell extract): a small amount of new 2-LTR junction fragment was also detected
circular DNA formed by preintegration complexes (preintegration complexes; 1 mM, column fractions): formation of only the 2-LTR circular DNA form

Nc1ncnc2c1ncn2[C@@H]1O[C@H](COP(=O)(O)OP(=O)(O)OP(O)(O)=S)[C@@H](O)[C@H]1O [ATPγS]
ability to substitute for ATP in formation of simple 2-LTR circles [1]: None of the other nucleoside triphosphates tested, nor ATPγS, was able to substitute for ATP
circularization of purified linear viral DNA [1]: failed to induce the circularization of purified linear viral DNA
circular DNA formed by preintegration complexes (preintegration complexes; in presence and absence of uninfected cell extracts): exclusive formation of autointegration 2-LTR circles
